Reference: patent publication US20250099426A1, “Indolium Compounds for Treating Cancer” (Emory University, priority 2022, published 2025)
“Also recorded” adds a separate entry of the source.

Tests used:
[1] = tested on: LM36R, a vemurafenib-resistant melanoma cell line; test: In vivo LM36R xenograft model, tumor volume; design: species or system athymic Nu/Nu nude male mice; conditions: LM36R 1×10^6 cells/mouse, IP three times a week, 3 mg/kg/week, 4 weeks, N=5/group, p-value=0.03 at week 4
Method: Mice were inoculated with LM36R, a vemurafenib-resistant melanoma cell line, at 1×10^6 cells/mouse. Mice were then treated with Indolium via IP administration three times a week at a concentration of 3 mg/kg/week. Tumor growth was compared to control vehicle (sterile water). […] (N=5/group, p-value=0.03) at week 4.
In order to investigate Indolium 1 activity against LM36R, vemurafenib-resistant melanoma cell line, in vivo, 10 mice were inoculated at 1×10^6 cells/mouse. Mice were then treated with indolium 1 via IP administration three times a week at a concentration of 3 mg/kg/week. […] (FIG. 2).
The xenograft model was developed. A LM36R cell suspension in growth medium was inoculated at 1×10^6 cells/mouse in the right flank of athymic Nu/Nu nude male mice (n=5 per group). MPIB was prepared by dissolving 3.75 mg into 1 mL of ethanol 7. This solution (100 μL) was then diluted to the final concentration in 1 mL of 20% soy-fat Intralipid™ prior to each injection and vortexed vigorously. […] MPIB treatment was initiated on the second day after the tumor cell injection, and the tumor volume as well as the weight of the animals were recorded weekly thereafter. Animals were sacrificed and tumors were harvested after tumor volumes reached experimental endpoint as determined by IACUC protocol.

[2] = tested on: Nkx3.2; test: Immunohistochemistry of in vivo LM36R tumor model, Nkx3.2; design: species or system mice; conditions: treated LM36R tumor versus control
Method: (§1) Tumor samples were resected and embedded in formalin, processed, and stained. Formalin-fixed and paraffin-embedded tissue sections from each group were cut to a 5-μm thickness and air-dried. Processing was performed using Ventana DISCOVERY™ Ultra automated immunohistochemistry stainer. Slides were deparaffinized with EZ-Prep (#05279771001) and then were antigen retrieved for 64 minutes with CC1 reagent (#950-500). Rabbit anti-Eph receptor A3 (EphA3) antibody (ab126261) diluted at 1:50, Rabbit anti-Nkx3.2 (#PA5-21108 diluted at 1:500) and mouse anti-Rbl antibody (554136) diluted at 1:100 were applied and incubated for 40 minutes. For the first two stains, DISCOVERY™ OmniMap anti-Rb HRP was applied and incubated for 12 minutes, and the detection was completed in combination with DISCOVERY™ ChromoMap DAB kit for anti-EphA3 antibody and DISCOVERY™ Red kit for anti-Nkx3.2 anti-body, as per manufacturer recommendations. For the Rbl stain, DISCOVERY™ OmniMap anti-mouse HRP was applied and incubated for 12 minutes, and the detection was completed in combination with DISCOVERY™ ChromoMap DAB kit. Slides were counterstained with hematoxylin for 8 minutes. Slides were then dehydrated, cover-slipped, and evaluated by light microscopy. Whole imaging was performed.

[3] = tested on: pAkt; test: Western blotting of treated LM36R cells, pAkt; format: cell-based; conditions: 0.1-5 μM Indolium 1, 24 hours
Method: (§2) LM36R cells were grown in six T75 flasks. Upon reaching 70% confluence, cell media was replaced with media with concentrations of 0, 0.1, 0.5, 1, 2.5, and 5 μM Indolium 1. After 24 hours, cells were lysed in RIPA buffer (25 mM Tris-HCl, 150 mM NaCl, 1% NP-40, 1% sodium deoxycholate, 0.1% sodium dodecyl sulfate, pH 7.6) supplemented with HALT™ protease phosphatase inhibitor cocktails and 0.5 M EDTA solution. Cell lysates incubated on ice for 30 minutes, and then centrifuged at 16,000×g at 4° C. for 20 minutes. Protein concentration was determined using the Pierce BCA Protein Assay Kit™ and then normalized. NuPage™ LDS Sample Buffer (4×) and beta-mercaptoethanol were added to the samples, which were subsequently boiled. Sample protein (40 μg) of were loaded into each well of NuPAGE™ 4-12% Bis-Tris precast gels in MOPS buffer against Precision Plus™ Protein Dual Color Standards. Proteins were transferred onto polyvinylidene difluoride membrane using Transblot Turbo™ system. Membrane was blocked for 1 hour at room temperature in 5% non-fat dry milk in 0.1% Tween-Tris-Buffered Saline and probed with Rb (#PA5-27215) pMAPK (9101S), pAkt (#4060S), and beta-tubulin (#2146S) antibodies at 1:1000 dilutions in 5% bovine serum albumin at 4° C. overnight. […] Antibody signal was detected using SuperSignal™ West Pico chemiluminescence substrate with Medical X-Ray Film and digitally scanned.

[4] = tested on: EphA3; test: ATAC-seq of LM36R tumors, chromatin accessibility; format: in vivo; conditions: treated versus vehicle LM36R tumors in mice
Method: To gain insights into the mechanisms by which Indolium 1 caused decrease in LM36R tumor volume, we analyzed possible changes in chromatin structure in the tumor cells using ATAC-seq. […] To further explore the effects that Indolium 1 has on cells which could have led to tumor size reduction, LM36R cells were treated with varying concentrations of Indolium 1. […] Beta-tubulin was used to confirm even protein concentrations in each sample.
Experiments reported herein indicate that small molecule, Indolium 1 has activity against vemurafenib resistant BRAF mutant melanoma. Vehicle versus Indolium treated tumors in mice were analyzed for potential biomarkers and for insight into the mechanism of Indolium 1 in vivo. […] EphA3 is a receptor tyrosine kinase which binds ligands ephrinA5 and […]. […] First, inactivating mutations in EphA3 are often found in high grade malignancies. Second, activation of wild type EphA3 causes downregulation of Akt, which has previously been implicated in melanoma progression. […] Finally, a novel antibody based therapeutic directed against EphA3, and therapies that induce EphA3 could sensitize melanoma to anit-EphA3 antibodies.

[5] = tested on: EphA3; test: Immunohistochemistry of in vivo LM36R tumor model, EphA3; design: species or system mice; conditions: treated LM36R tumor tissue versus controls
Method: as §1

[6] = design: species or system mice; conditions: mouse, in vivo
Method: The ability to inhibit the growth of vemurafenib resistant melanoma in vivo is unique.
The xenograft model was developed. A LM36R cell suspension in growth medium was inoculated at 1×10^6 cells/mouse in the right flank of athymic Nu/Nu nude male mice (n=5 per group). MPIB was prepared by dissolving 3.75 mg into 1 mL of ethanol 7. This solution (100 μL) was then diluted to the final concentration in 1 mL of 20% soy-fat Intralipid™ prior to each injection and vortexed vigorously. Vehicle control (ethanol in Intralipid) or MPIB was administered intraperitoneally three times a week at 3 mg/kg/week. MPIB treatment was initiated on the second day after the tumor cell injection, and the tumor volume as well as the weight of the animals were recorded weekly thereafter. Animals were sacrificed and tumors were harvested after tumor volumes reached experimental endpoint as determined by IACUC protocol.

[7] = tested on: pMAPK; test: Western blotting of treated LM36R cells, pMAPK; format: cell-based; conditions: 0.1-5 μM Indolium 1, 24 hours
Method: as §2

[8] = tested on: Rb; test: Western blotting of treated LM36R cells, Rb; format: cell-based; conditions: 0.1-5 μM Indolium 1, 24 hours
Method: as §2

[9] = tested on: LM36R cells; test: Proliferation assay / cell viability (AlamarBlue); format: cell-based; conditions: Indolium 1 1 μM, 24 hours
Method: Lanes: 1) Control 2) Indolium 1 (1 μM) 3) MEK Inhibitor U0126 (10 μM) 4) Akt Inhibitor II (10 μM) 5) Indolium 1 (1 μM)+MEK Inhibitor U0126 (10 μM) 6) Indolium 1+Akt Inhibitor II (10 μM). *=Statistically lower cell viability compared to control (p<0.05). **=Statistically lower cell viability compared to control and statistically higher cell viability than Indolium 1 treatment (lane 2) alone. Inhibition of MAPK and Akt reverses cell death caused by Indolium 1.
The induction of MAPK and Akt seem to contribute to reduction in tumor size observed in mice treated with Indolium 1. In a cell viability assay, cells were treated with Indolium 1, MEK inhibitor (inhibiting the MAPK signaling pathway directly upstream of MAPK), and Akt inhibitor. Cells were also treated with a combination of Indolium 1 and each inhibitor. […]
A cell proliferation assay was used to study the effect of Indolium 1 in vitro. […] After 4 hours, the plate was read following manufacturer's instructions and the data was processed using Softmax™ Pro software (Molecular Devices). An unpaired two-tailed Student's t-test was performed to determine the significant difference between the control and each treatment group, along with between the Indolium 1 only versus Indolium 1 plus MEK/Akt inhibitor, with significance determined at p<0.05.

[10] = tested on: Rb; test: Immunohistochemistry of in vivo LM36R tumor model, Rb; design: species or system mice; conditions: treated LM36R tumor tissue versus control tissue
Method: as §1

For “3-(bis(4-(diethylamino)phenyl) methylene)-1-methyl-2-phenyl-3H-indol-1-ium [Indolium 1]”, the “tumor volume versus control” value [1] was “potent in vivo activity against LM36R; also recorded: significant reduction of tumor volume; also recorded: reduced tumor volume over 4 weeks”, the Nkx3.2 immunohistochemical staining [2] was “upregulated Nkx3.2 expression” and the “pAkt levels (Western blot)” value [3] was “induction”. The “EphA3 chromatin accessibility (ATAC-seq)” value [4] was “one of the most upregulated genes in terms of chromatin accessibility”, the EphA3 immunohistochemical staining [5] was “more positivity for EPHA3 compared to controls” and the tolerability [6] was “well tolerated”. The “pMAPK levels (Western blot)” value [7] was “induction of phosphorylated MAP kinase”, the “levels of Rb (Western blot)” value [8] was “decreased with increasing concentrations” and the relative cell viability [9] was “cell death”. For the same substance, the Rb immunohistochemical staining [10] was “less Rb compared with control tissue”.
